Several values for one entry are separate records, joined by “and”; a condition that tells them apart may be missing. Equal values may be shown once. Read-outs that look alike come from different tables or passages of the source.
Experiments:
[1] = test system: simian immunodeficiency virus (SIV); experiment: TLR7 modulating compound in SIV+ viremic rhesus at chronic set point: plasma viral load by quantitative RT-PCR (Example 203); type: in vivo, rhesus macaques
Protocol: Five chronically infected, SIV^+ rhesus macaques were either treated with the compound of Example 4 (n=3 animals) or with dosing vehicle (placebo, n=2 animals) in a multiple-dose, dose escalation, placebo controlled study. […] The animals were not administered combination antiretroviral therapy during any part of the study.
The animals were dosed once weekly by oral gavage (via nasogastric tube) with either the compound of Example 4 or placebo. Three animals were administered the compound of Example 4, prepared as described in Example 201. The first week, 1 mL/kg of the 0.1 mg/mL formulation was administered, corresponding to a dose of 0.1 mg/kg. The second week, 1 mL/kg of the 0.2 mg/mL formulation was administered, corresponding to a dose of 0.2 mg/kg. On weeks three through five, 1 mL/kg of the 0.3 mg/mL formulation was administered, corresponding to a dose of 0.3 mg/kg. Each week, two animals (placebo group) were administered the dosing vehicle as described in Example 201 at 1 mL/kg.
Each formulation of Example 201 or dosing vehicle only (placebo) was used fresh and thawed to room temperature prior to dosing. Plasma viral loads (expressed as SIV RNA copies per mL of plasma) were determined by quantitative RT-PCR of the SIV RNA measuring the gag gene transcripts at various times throughout the study for animals administered the compound of Example 4 and the placebo animals. […]

[2] = test system: HIV-1 expression in PBMC cultures from HIV-1 infected donors on cART; experiment: Induced HIV-1 expression in PBMC cultures from HIV-1 infected donors on cART (Example 208); type: cell-based, human; conditions: for fold induction at 0.01 µM / fold induction at 0.1 µM / fold induction at 0.156 µM / fold induction at 1 µM / fold induction at 2.5 µM / fold induction at 10 µM: Human immunodeficiency virus 1, PBMC; for fold induction at 0.01 µM: read-out: Fold HIV-1 Induction, Geometric Mean, 0.01 μM; for fold induction at 0.01 µM / fold induction at 0.156 µM / fold induction at 2.5 µM: donors 152-155; for fold induction at 0.1 µM: read-out: Fold HIV-1 Induction, Geometric Mean, 0.1 μM; for fold induction at 0.1 µM / fold induction at 1 µM: donors 122, 124-128; for fold induction at 0.156 µM: read-out: Fold HIV-1 Induction, Geometric Mean, 0.156 μM; for fold induction at 1 µM: read-out: Fold HIV-1 Induction, Geometric Mean, 1 μM; for fold induction at 2.5 µM: read-out: Fold HIV-1 Induction, Geometric Mean, 2.5 μM; for fold induction at 10 µM: read-out: Fold HIV-1 Induction, Geometric Mean, 10 μM, donors 124-127; for patients whose cultures showed two-fold or higher activation over the DMSO control: 4 to 5 days, with elvitegravir and efavirenz 100 nM each
Protocol: Isolated PBMCs were treated with various concentrations (0.1, 1, and 10 μM) of the TLR7 modulating compounds (compounds of Example 4 and Example 49) or dimethyl sulfoxide (DMSO) treated (vehicle control) for 4 to 5 days. The cultures were maintained in the presence of antivirals (elvitegravir and efavirenz at 100 nM each) to prevent viral spread and amplification in order to measure initial virus production (latency reversal) created by the TLR7 modulating compounds. At the end of the incubation period cell-free culture supernatants were harvested and HIV-1 RNA levels were quantified by the COBAS® AmpliPrep/COBAS® TaqMan HIV-1 Test, v2.0 (Roche).
Using the method described above in Example 208, HIV-1 expression in PBMC cultures derived from four additional HIV-1 infected donors on cART were tested in the presence of the compounds of Examples 4, 29, 120, 121, 122, 123, 124, resiquimod, and imiquimod.

[3] = test system: proviral SIV DNA; experiment: Proviral SIV DNA in PBMCs, lymph node and colon by qPCR (Example 205); type: in vivo, rhesus macaques
Text: A whole blood sample, an inguinal lymph node sample, and a colon pinch biopsy sample were taken from the animals dosed with the compound of Example 4 and from the animals dosed with the vehicle of Example 201 (placebo group) in the study described in Example 204. These samples were taken prior to initiation of dosing and two weeks after the last dose; all samples were taken while animals were on cART. Total DNA was isolated from each sample using commercially available blood and tissue DNA extraction kits. Proviral SIV DNA levels were measured by quantitative PCR (qPCR) using probe-primer sets specific to the SIV gag gene and normalization for cellular input by measuring the glyceraldehyde 3-phosphate dehydrogenase (GAPDH) gene levels. […] In one of the compound treated animals (166-08), there was only a noted decrease in the proviral DNA content in the PBMCs, a minor increase in lymph node, and a minor decrease in the colon. In the vehicle-dosed placebo control animals, however, there were slight to moderate increases in two of three animals in proviral SIV DNA in the PBMC and colon samples, and relatively stable levels in lymph node samples.

[4] = test system: HIV-1BaL; experiment: Antiviral activity on in vitro HIV-1 infected PBMC cultures, Gag p24 ELISA (Example 209); type: cell-based; conditions: Human immunodeficiency virus 1, 144 h, PHA-stimulated human PBMC infected with HIV-1BaL, six days with IL-2, Gag p24
Protocol: Antiretroviral activity was assessed by testing the TLR7 modulating compounds (Compounds of Example 4 and Example 49) in total human PBMC cultures that were first treated with mitogen (phytohemogglutinin A) for two days prior to infection with HIV-1BaL. Infected cells were cultured in the presence of interleukin-2 and various concentrations of the TLR7 modulating compounds or the nucleoside analog HIV-1 reverse transcriptase inhibitor azidothymidine (AZT, positive control) for six days. At the end of the incubation period, cell-free culture supernatants were harvested and antiviral activity determined by measuring production of HIV-1 Gag p24 by commercially available ELISA kits.

[5] = test system: CD3+CD8+ lymphocytes in PBMC cultures from healthy and HIV-1 infected donors; experiment: In vitro lymphocyte subset activation in PBMC cultures, CD69 on CD8+ lymphocytes (Example 207); type: cell-based, human; conditions: 24 hours; for CD69 Expression on CD3+CD8+ Lymphocytes, Mean Maximum Expression Background Subtracted: mean of donors 120-123; for CD69 Expression on CD3+CD8+ Lymphocytes, Maximum Expression (Actual %) / CD69 Expression on CD3+CD8+ Lymphocytes, Maximum Expression Background Subtracted: per donor, PBMC cultures
Protocol: (§1) Total PBMC cultures were treated with various concentrations of the identified TLR7 modulating compounds (Compounds of Example 4 and Example 49) for 24 hours. At the end of the incubation period, total PBMC were harvested and stained with antibodies conjugated to specific fluorophores to delineate human CD4 lymphocytes (CD3+CD4+CD8−) or CD8 lymphocytes (CD3+CD8+CD4-) and co-expressing the early activation marker CD69. Cells were analyzed by flow cytometry and data collected on an LSR FortessaX20 instrument (BD Biosciences).

[6] = test system: CD3+CD4+ lymphocytes in PBMC cultures from HIV-1 infected donors; experiment: In vitro lymphocyte subset activation in PBMC cultures, CD69 on CD4+ lymphocytes (Example 207); type: cell-based, human; conditions: 24 hours; for CD69 Expression on CD3+CD4+ Lymphocytes, Mean Maximum Expression Background Subtracted: mean of donors 120-123; for CD69 Expression on CD3+CD4+ Lymphocytes, Maximum Expression (Actual %) / CD69 Expression on CD3+CD4+ Lymphocytes, Maximum Expression Background Subtracted: per donor, PBMC from HIV-1 infected donors
Protocol: as §1

[7] = at least 8 independent donors, read-out: Range EC50
[8] = mean ± SD from at least 8 independent donors, read-out: Mean EC50

Structure (SMILES) | Donors with ≥2-fold HIV-1 Induction ([2]; 0.01 μM, Tables 7-11) | Donors with ≥2-fold HIV-1 Induction ([2]; 0.1 μM, Table 6) | Donors with ≥2-fold HIV-1 Induction ([2]; 0.156 μM, Tables 7-11) | Donors with ≥2-fold HIV-1 Induction ([2]; 1 μM, Table 6) | Donors with ≥2-fold HIV-1 Induction ([2]; 2.5 μM, Tables 7-11) | Donors with ≥2-fold HIV-1 Induction ([2]; 10 μM, Table 6) | fold induction at 0.01 µM ([2]; Tables 7-11) | fold induction at 0.1 µM ([2]; Table 6) | fold induction at 0.156 µM ([2]; Tables 7-11) | fold induction at 1 µM ([2]; Table 6) | fold induction at 2.5 µM ([2]; Tables 7-11) | fold induction at 10 µM ([2]; Table 6) | EC50 [4, 7] | EC50 [4, 8] | CD69 Expression on CD3+CD8+ Lymphocytes, Mean Maximum Expression Background Subtracted [5] | CD69 Expression on CD3+CD8+ Lymphocytes, Maximum Expression (Actual %) [5] | CD69 Expression on CD3+CD8+ Lymphocytes, Maximum Expression Background Subtracted [5] | CD69 Expression on CD3+CD4+ Lymphocytes, Mean Maximum Expression Background Subtracted [6] | CD69 Expression on CD3+CD4+ Lymphocytes, Maximum Expression (Actual %) [6] | CD69 Expression on CD3+CD4+ Lymphocytes, Maximum Expression Background Subtracted [6] | further results
CCCCOc1nc(N)c2c(n1)N(Cc1ccc(CN3CCCC3)cc1)CC(=O)N2 [Example 4] | 4 of 4 | 4 of 6 | 4 of 4 | 3 of 6 | 4 of 4 | 3 of 4 | 4.3 | 2 | 5.3 | 1.6 | 4 | 3.9 | 0.8 to 81 nM | 33 ± 35 nM | 32% | 60% and 44% and 35% and 32% | 36% and 30% (2×) and 33% | 22% | 57% and 41% and 26% and 24% | 19% and 21% and 25% and 24% | plasma viral load ([1]; animal with the lowest chronic set point, undetectable for at least 100 days following the last dose (FIG. 1)): < 50 RNA copies/mL; sustained decrease in viral load set point compared to pre-dose ([1]; second animal, log10 RNA copies, maintained at least 100 days following the last dose (FIG. 2)): approximately 1 log order; Proviral SIV DNA, PBMC, Pre ([3]; SIV+ rhesus on cART, prior to initiation of dosing, one line per animal): 150 copies/10^6 cells and 68 copies/10^6 cells and 160 copies/10^6 cells and 120 copies/10^6 cells; Proviral SIV DNA, PBMC, Post ([3]; SIV+ rhesus on cART, two weeks after the last dose, one line per animal): 100 copies/10^6 cells and 34 copies/10^6 cells and 89 copies/10^6 cells and 3 copies/10^6 cells; Proviral SIV DNA, Colon, Pre ([3]; colon pinch biopsy, on cART, prior to initiation of dosing, one line per animal): 230 copies/10^6 cells and 80 copies/10^6 cells and 150 copies/10^6 cells and 110 copies/10^6 cells; Proviral SIV DNA, Colon, Post ([3]; colon pinch biopsy, on cART, two weeks after the last dose, one line per animal): 210 copies/10^6 cells and 3 copies/10^6 cells (3×); Proviral SIV DNA, Lymph node, Pre ([3]; inguinal lymph node, on cART, prior to initiation of dosing, one line per animal): 270 copies/10^6 cells and 31 copies/10^6 cells and 210 copies/10^6 cells and 130 copies/10^6 cells; Proviral SIV DNA, Lymph node, Post ([3]; inguinal lymph node, on cART, two weeks after the last dose, one line per animal): 280 copies/10^6 cells and 3 copies/10^6 cells (2×) and 84 copies/10^6 cells; change of proviral SIV DNA, pre- vs post-treatment, across PBMC, inguinal lymph node and colon ([3]; within each animal, on cART): clear decrease in proviral DNA content for three of four animals
CCCCOc1nc(N)c2c(n1)N(Cc1cccc(CN3CCCC3)c1)CC(=O)N2 [Example 49] | 2 of 4 | 3 of 6 | 4 of 4 | 4 of 6 | 4 of 4 | 1 of 4 | 4 | 2.3 | 6.7 | 2.8 | 9.4 | 1.4 | 4 to 691 nM | 170 ± 240 nM | 31% | 55% and 43% and 35% and 32% | 31% and 29% and 33% and 30% | 22% | 59% and 39% and 24% and 25% | 21% and 20% and 23% and 24% | patients whose cultures showed two-fold or higher activation over the DMSO control ([2]; 0.1 μM): 4 of 6; patients whose cultures showed two-fold or higher activation over the DMSO control ([2]; 1 μM): 3 of 6; patients whose cultures showed two-fold or higher activation over the DMSO control ([2]; 10 μM): 1 of 4

Source: patent US11116774B2, “Modulators of toll-like receptors for the treatment of HIV” (Gilead Sciences, Inc., priority 2014, dated 2021)
